For 35 compounds, class results are on record in patent US20050197350A1, “Novel quinoline, tetrahydroquinazoline, and pyrimidine derivatives and methods of treatment related to the use thereof” (TAISHO PHARMACEUTICAL CO., LTD., priority 2003, published 2005).

The test system of this assay is MCH receptors. As to the kind of experiment: MCH receptor activity class (method not given). Particulars: class by percent of control at 10^-7 M or IC50.

On to `CN(C)c1ccnc(N[C@H]2CC[C@@H](NC(=O)c3ccc([N+](=O)[O-])cc3F)CC2)n1` [compound 912], for which the class is 3 (Class 3 The value of percent of control at 10^−7 M was more than 60% or the value of IC50 was more than 200 nM.). As for `Cc1cc(C(=O)N[C@H]2CC[C@@H](Nc3nccc(N(C)C)n3)CC2)cc(C)c1[N+](=O)[O-]` [compound 913, N-(cis-4-{[4-(dimethylamino)pyrimidin-2-yl]amino}cyclohexyl)-3,5-dimethyl-4-nitrobenzamide], the class is reported as 2 (Class 2: The value of percent of control at 10^−7 M was from 40% to 60% or the value of IC′50 was from 50 nM to 200 nM.). To `Cc1cc(C)c(C(=O)C(=O)N[C@H]2CC[C@@H](Nc3nccc(N(C)C)n3)CC2)c(C)c1` [compound 914, N-(cis-4-{[4-(dimethylamino)pyrimidin-2-yl]amino}cyclohexyl)-2-mesityl-2-oxoacetamide] belongs 2 (Class 2: The value of percent of control at 10^−7 M was from 40% to 60% or the value of IC′50 was from 50 nM to 200 nM.); to `CN(C)c1ccnc(N[C@H]2CC[C@@H](NC(=O)c3cnc4ccccc4c3)CC2)n1` [compound 915], 3 (Class 3 The value of percent of control at 10^−7 M was more than 60% or the value of IC50 was more than 200 nM.). To `CN(C)c1ccnc(N[C@H]2CC[C@@H](NC(=O)c3ccc4ncsc4c3)CC2)n1` [compound 918] belongs 3 (Class 3 The value of percent of control at 10^−7 M was more than 60% or the value of IC50 was more than 200 nM.). On to `CN(C)c1ccnc(N[C@H]2CC[C@@H](NC(=O)c3cc(Cl)ccc3O)CC2)n1` [compound 919], for which the class is recorded as 3 (Class 3 The value of percent of control at 10^−7 M was more than 60% or the value of IC50 was more than 200 nM.). Turning to `CSc1ccc(Cl)c(C(=O)N[C@H]2CC[C@@H](Nc3nccc(N(C)C)n3)CC2)c1` [compound 920], the class is given as 3 (Class 3 The value of percent of control at 10^−7 M was more than 60% or the value of IC50 was more than 200 nM.). As for `COc1cccc2cc(C(=O)N[C@H]3CC[C@@H](Nc4nccc(N(C)C)n4)CC3)oc12` [compound 921], the class is recorded as 3 (Class 3 The value of percent of control at 10^−7 M was more than 60% or the value of IC50 was more than 200 nM.). The same measure for `Cc1cccc(C(=O)N[C@H]2CC[C@@H](Nc3nccc(N(C)C)n3)CC2)c1N` [compound 922]: 3 (Class 3 The value of percent of control at 10^−7 M was more than 60% or the value of IC50 was more than 200 nM.); for `C=CCSc1ncccc1C(=O)N[C@H]1CC[C@@H](Nc2nccc(N(C)C)n2)CC1` [compound 923]: 3 (Class 3 The value of percent of control at 10^−7 M was more than 60% or the value of IC50 was more than 200 nM.). Consider `CN(C)c1ccnc(N[C@H]2CC[C@@H](NC(=O)c3cc(C(C)(C)C)c(O)c(C(C)(C)C)c3)CC2)n1` [compound 924], for which the class is on record as 1 (Class 1: The value of percent of control at 10^−7 M was less than 40% or the value of IC50 was less than 50 nM.). Consider `CN(C)c1ccnc(N[C@H]2CC[C@@H](CNC(=O)c3ccc(Br)s3)CC2)n1` [compound 925], for which the class is 3 (Class 3 The value of percent of control at 10^−7 M was more than 60% or the value of IC50 was more than 200 nM.).

Turning to `CN(C)c1ccnc(N[C@H]2CC[C@@H](CNC(=O)Cc3c(Cl)ccc(Cl)c3Cl)CC2)n1` [compound 926, N-[(cis-4-{[4-(dimethylamino)pyrimidin-2-yl]amino}cyclohexyl)methyl]-2-(2,3,6-trichlorophenyl)acetamide], the class was 1 (Class 1: The value of percent of control at 10^−7 M was less than 40% or the value of IC50 was less than 50 nM.).

On to `CN(C)c1ccnc(N[C@H]2CC[C@@H](CNC(=O)Cc3ccc(F)cc3Cl)CC2)n1` [compound 927], for which the class is 3 (Class 3 The value of percent of control at 10^−7 M was more than 60% or the value of IC50 was more than 200 nM.).

As to `CN(C)c1ccnc(N[C@H]2CC[C@@H](CNC(=O)c3ccc(-c4ccc(Cl)cc4[N+](=O)[O-])o3)CC2)n1` [compound 928], the class was 3 (Class 3 The value of percent of control at 10^−7 M was more than 60% or the value of IC50 was more than 200 nM.). Consider `CN(C)c1ccnc(N[C@H]2CC[C@@H](CNC(=O)c3ccc(Cl)s3)CC2)n1` [compound 929], for which the class was 3 (Class 3 The value of percent of control at 10^−7 M was more than 60% or the value of IC50 was more than 200 nM.).

`CN(C)c1ccnc(N[C@H]2CC[C@@H](CNC(=O)CCc3ccccc3O)CC2)n1` [compound 931]: the class is recorded as 3 (Class 3 The value of percent of control at 10^−7 M was more than 60% or the value of IC50 was more than 200 nM.). As to `CN(C)c1ccnc(N[C@H]2CC[C@@H](CNC(=O)c3ccc(I)o3)CC2)n1` [compound 932, N-[(cis-4-{[4-(dimethylamino)pyrimidin-2-yl]amino}cyclohexyl)methyl]-5-iodo-2-furamide], the class was 2 (Class 2: The value of percent of control at 10^−7 M was from 40% to 60% or the value of IC′50 was from 50 nM to 200 nM.). The same measure for `COc1ccc2[nH]c(C)c(CC(=O)NC[C@H]3CC[C@@H](Nc4nccc(N(C)C)n4)CC3)c2c1` [compound 933]: 3 (Class 3 The value of percent of control at 10^−7 M was more than 60% or the value of IC50 was more than 200 nM.). With `CN(C)c1ccnc(N[C@H]2CC[C@@H](CNC(=O)/C=C/c3cccc([N+](=O)[O-])c3)CC2)n1` [compound 934], the class is given as 1 (Class 1: The value of percent of control at 10^−7 M was less than 40% or the value of IC50 was less than 50 nM.). As for `CN(C)c1ccnc(N[C@H]2CC[C@@H](CNC(=O)c3ccccc3Cc3ccccc3)CC2)n1` [compound 936], the class is 2 (Class 2: The value of percent of control at 10^−7 M was from 40% to 60% or the value of IC′50 was from 50 nM to 200 nM.). `CN(C)c1ccnc(N[C@H]2CC[C@@H](CNC(=O)C(c3ccc(Cl)cc3)c3ccc(Cl)cc3)CC2)n1` [compound 937, 2,2-bis(4-chlorophenyl)-N-[(cis-4-{[4-(dimethylamino)pyrimidin-2-yl]amino}cyclohexyl)methyl]acetamide]: the class is 1 (Class 1: The value of percent of control at 10^−7 M was less than 40% or the value of IC50 was less than 50 nM.).

With `Cc1ccc(-c2ccc(C(=O)NC[C@H]3CC[C@@H](Nc4nccc(N(C)C)n4)CC3)o2)c([N+](=O)[O-])c1` [compound 938], the class is on record as 3 (Class 3 The value of percent of control at 10^−7 M was more than 60% or the value of IC50 was more than 200 nM.). Regarding `CN(C)c1ccnc(N[C@H]2CC[C@@H](CNC(=O)c3ccc([N+](=O)[O-])s3)CC2)n1` [compound 939], the class is given as 3 (Class 3 The value of percent of control at 10^−7 M was more than 60% or the value of IC50 was more than 200 nM.). Take `Cc1cc(C(=O)NC[C@H]2CC[C@@H](Nc3nccc(N(C)C)n3)CC2)ccc1[N+](=O)[O-]` [compound 940, N-[(cis-4-{[4-(dimethylamino)pyrimidin-2-yl]amino}cyclohexyl)methyl]-3-methyl-4-nitrobenzamide]: the class is recorded as 1 (Class 1: The value of percent of control at 10^−7 M was less than 40% or the value of IC50 was less than 50 nM.).

For the compound `COc1cc(C(=O)NC[C@H]2CC[C@@H](Nc3nccc(N(C)C)n3)CC2)ccc1[N+](=O)[O-]` [compound 941, N-[(cis-4-{[4-(dimethylamino)pyrimidin-2-yl]amino}cyclohexyl)methyl]-3-methoxy-4-nitrobenzamide], the class is 1 (Class 1: The value of percent of control at 10^−7 M was less than 40% or the value of IC50 was less than 50 nM.). The same measure for `CN(C)c1ccnc(N[C@H]2CC[C@@H](CNC(=O)c3cn(Cc4ccccc4)c4ccccc34)CC2)n1` [compound 942]: 3 (Class 3 The value of percent of control at 10^−7 M was more than 60% or the value of IC50 was more than 200 nM.); for `CN(C)c1ccnc(N[C@H]2CC[C@@H](CNC(=O)CC3=CCCCC3)CC2)n1` [compound 943]: 3 (Class 3 The value of percent of control at 10^−7 M was more than 60% or the value of IC50 was more than 200 nM.). Consider `CN(C)c1ccnc(N[C@H]2CC[C@@H](CNC(=O)Cc3ccccc3OC(F)(F)F)CC2)n1` [compound 945], for which the class is reported as 1 (Class 1: The value of percent of control at 10^−7 M was less than 40% or the value of IC50 was less than 50 nM.). Consider `Cc1cc(C(=O)NC[C@H]2CC[C@@H](Nc3nccc(N(C)C)n3)CC2)cc(C)c1OCc1ccccc1` [compound 946], for which the class is on record as 3 (Class 3 The value of percent of control at 10^−7 M was more than 60% or the value of IC50 was more than 200 nM.). For `CN(C)c1ccnc(N[C@H]2CC[C@@H](CNC(=O)C3c4ccccc4Oc4ccccc43)CC2)n1` [compound 947, N-[(cis-4-{[4-(dimethylamino)pyrimidin-2-yl]amino}cyclohexyl)methyl]-9H-xanthene-9-carboxamide], the class was 1 (Class 1: The value of percent of control at 10^−7 M was less than 40% or the value of IC50 was less than 50 nM.). To `CN(C)c1ccnc(N[C@H]2CC[C@@H](CNC(=O)Cc3csc4ccccc34)CC2)n1` [compound 948] belongs 1 (Class 1: The value of percent of control at 10^−7 M was less than 40% or the value of IC50 was less than 50 nM.).

For `CN(C)c1nc(N[C@H]2CC[C@@H](NC(=O)c3ccc(Br)s3)CC2)nc2c1CCCC2` [compound 949], the class is given as 2 (Class 2: The value of percent of control at 10^−7 M was from 40% to 60% or the value of IC′50 was from 50 nM to 200 nM.). To `CN(C)c1nc(N[C@H]2CC[C@@H](NC(=O)Cc3c(Cl)ccc(Cl)c3Cl)CC2)nc2c1CCCC2` [compound 950] belongs 2 (Class 2: The value of percent of control at 10^−7 M was from 40% to 60% or the value of IC′50 was from 50 nM to 200 nM.); to `CN(C)c1nc(N[C@H]2CC[C@@H](NC(=O)Cc3ccc(F)cc3Cl)CC2)nc2c1CCCC2` [compound 951, 2-(2-chloro-4-fluorophenyl)-N-(cis-4-{[4-(dimethylamino)-5,6,7,8-tetrahydroquinazolin-2-yl]amino}cyclohexyl)acetamide], 1 (Class 1: The value of percent of control at 10^−7 M was less than 40% or the value of IC50 was less than 50 nM.).
